According to ChEMBL document CHEMBL4265906, “Synthesis and biological evaluation of isoxazolyl-sulfonamides: A non-cytotoxic scaffold active against Trypanosoma cruzi, Leishmania amazonensis and Herpes Simplex Virus” (Bioorg Med Chem Lett, 2018):
The source made the active and inactive calls. The rule behind the calls is not given here.

How the values were obtained:
Trypanosoma cruzi [1] = test: Trypanocidal activity against Trypanosoma cruzi Tulahuen trypomastigotes infected in human THP1 cells assessed as growth inhibition at 50 uM after 48 hrs by chlorophenolred-beta-d-galactopyranoside/Nonidet P-40 reagent-based assay; type: functional; conditions: for inhibition of growth at 50 µM: THP-1, 48 h, read-out: GI
Trypanosoma cruzi [2] = test: Trypanocidal activity against Trypanosoma cruzi Tulahuen trypomastigotes infected in human THP1 cells assessed as growth inhibition after 48 hrs by chlorophenolred-beta-d-galactopyranoside/Nonidet P-40 reagent-based assay; type: functional
Leishmania amazonensis [3] = test: Leishmanicidal activity against Leishmania amazonensis MHOM/BR/77/LTB0016 amastigotes infected in human THP1 cells assessed as growth inhibition at 50 uM after 48 hrs by chlorophenolred-beta-d-galactopyranoside/Nonidet P-40 reagent-based assay; type: functional; conditions: for inhibition of growth at 50 µM: MHOM/BR/77/LTB0016, THP-1, 48 h, read-out: GI
Human alphaherpesvirus 1 [4] = test: Antiviral activity against […] HSV1 KOS infected in African green monkey Vero cells assessed as inhibition of viral replication at 100 uM after 48 hrs by naphthol blue-black staining-based assay; type: functional; conditions: for inhibition at 100 µM: Human alphaherpesvirus 1, KOS
Human alphaherpesvirus 1 [5] = test: Antiviral activity against […] HSV1 KOS infected in African green monkey Vero cells assessed as inhibition of viral replication after 48 hrs by naphthol blue-black staining-based assay; type: functional, organism-based
[6] = Selectivity index, ratio of CC50 for African green monkey Vero cells to IC50 for HSV1 KOS; type: toxicity; conditions: read-out: Ratio CC50/IC50
[7] = Selectivity index, ratio of CC50 for human THP1 cells to G150 for Trypanosoma cruzi Tulahuen trypomastigotes; type: toxicity; conditions: THP-1 cells, read-out: Selectivity Index
[8] = Cytotoxicity against human A549 cells assessed as reduction in cell viability after 48 hrs by sulforhodamine B assay; type: cell-based
[9] = Cytotoxicity against human HCT8 cells assessed as reduction in cell viability after 48 hrs by sulforhodamine B assay; type: cell-based; conditions: HCT-8 cells
[10] = Cytotoxicity against African green monkey Vero cells assessed as reduction in cell viability after 48 hrs by sulforhodamine B assay; type: cell-based; conditions: chlorocebus sabaeus
[11] = Cytotoxicity against human THP1 cells assessed as reduction in cell viability by MTT assay; type: cell-based; conditions: THP-1 cells
Trypanosoma cruzi [12] = test: Trypanocidal activity against Trypanosoma cruzi Tulahuen trypomastigotes infected in human THP1 cells at 20 uM after 48 hrs by chlorophenolred-beta-d-galactopyranoside/Nonidet P-40 reagent-based assay; type: functional; conditions: THP-1, 48 h, read-out: GI
Leishmania amazonensis [13] = test: Leishmanicidal activity against Leishmania amazonensis MHOM/BR/77/LTB0016 amastigotes infected in human THP1 cells assessed as growth inhibition at 2 uM after 48 hrs by chlorophenolred-beta-d-galactopyranoside/Nonidet P-40 reagent-based assay; type: functional; conditions: MHOM/BR/77/LTB0016, THP-1, 48 h, read-out: GI
[14] = Human alphaherpesvirus 1, KOS, Vero, 48 h, read-out: IC50

| SMILES | inhibition of growth at 50 µM (Trypanosoma cruzi [1]) [%] | GI50 (Trypanosoma cruzi [2]; THP-1, 48 h) [µM] | inhibition of growth at 50 µM (Leishmania amazonensis [3]) [%] | inhibition at 100 µM (Human alphaherpesvirus 1 [4]) [%] | IC50 (Human alphaherpesvirus 1 [5]; [14]) [µM] | inhibition (Human alphaherpesvirus 1 [4]) | IC50 (Human alphaherpesvirus 1 [5]; vero) | also measured |
| --- | --- | --- | --- | --- | --- | --- | --- | --- |
| Cc1ccc(S(=O)(=O)NCc2cc(-c3ccccc3)no2)cc1 | 5.8 | > 50 | 10.9 | 25.3 | > 100 | – | – | – |
| COc1ccc(-c2cc(CNS(=O)(=O)c3ccc(F)cc3)on2)cc1 | 44.5 | > 50 | 14 | 100 | 87.4 | – | – | selectivity ratio [6]: > 5.7 |
| O=[N+]([O-])c1ccc(-c2cc(CNS(=O)(=O)c3ccc([N+](=O)[O-])cc3)on2)cc1 | 76.2 | 38.6 | 25.2 | – | – | inactive | Not Active | selectivity ratio [7]: > 12.9 |
| COc1ccc(-c2cc(CNS(=O)(=O)c3ccc([N+](=O)[O-])cc3)on2)cc1OC | 53.9 | > 50 | 10.2 | – | – | inactive | Not Active | – |
| O=S(=O)(NCc1cc(-c2ccc3c(c2)OCO3)no1)c1ccc(Cl)cc1 | 14.2 | > 50 | 30.7 | – | – | inactive | Not Active | – |
| COc1ccc(-c2cc(CNS(=O)(=O)c3ccc(C)cc3)on2)cc1OC | 25.6 | > 50 | 4.1 | – | – | inactive | Not Active | – |
| Cc1ccc(S(=O)(=O)NCc2cc(-c3ccc4c(c3)OCO4)no2)cc1 | – | – | 11.4 | 19.1 | > 100 | – | – | CC50 at 48 h [8]: 358 µM; CC50 at 48 h [9]: 437 µM; CC50 at 48 h [10]: > 500 µM; CC50 [11]: > 500 µM; growth inhibition (GI) (Trypanosoma cruzi [1]): inactive; GI50 (Trypanosoma cruzi [2]): inactive |
| COc1ccc(-c2cc(CNS(=O)(=O)c3ccc(Cl)cc3)on2)cc1OC | 27.4 | > 50 | – | 2 | > 100 | – | – | growth inhibition (GI) (Leishmania amazonensis [3]): inactive |
| Cc1ccc(S(=O)(=O)NCc2cc(-c3ccc([N+](=O)[O-])cc3)no2)cc1 | 9.8 | > 50 | 9.3 | – | – | inactive | Not Active | – |
| O=S(=O)(NCc1cc(-c2ccccc2)no1)c1ccc(Cl)cc1 | 16.6 | > 50 | 17.2 | 17.8 | > 100 | – | – | – |
| COc1ccc(-c2cc(CNS(=O)(=O)c3ccc(F)cc3)on2)cc1OC | 72.8 | 42.4 | 6.6 | 22.8 | > 100 | – | – | CC50 at 48 h [8]: 327 µM; CC50 at 48 h [9]: 374 µM; CC50 at 48 h [10]: 397 µM; CC50 [11]: 300 µM; selectivity ratio [7]: 7.1 |
| O=[N+]([O-])c1ccc(-c2cc(CNS(=O)(=O)c3ccc(F)cc3)on2)cc1 | 7.8 | > 50 | 15.7 | – | – | inactive | Not Active | – |
| COc1ccc(-c2cc(CNS(=O)(=O)c3ccc([N+](=O)[O-])cc3)on2)cc1 | 85.8 | 14.3 | 48.7 | 60 | 137 | – | – | selectivity ratio [7]: > 34.8; selectivity ratio [6]: > 3.6 |
| O=C(Cn1ccnc1[N+](=O)[O-])NCc1ccccc1 [BENZNIDAZOLE] | – | 10.2 | – | – | – | – | – | inhibition of growth at 20 µM (Trypanosoma cruzi [12]): 96.6%; selectivity ratio [7]: > 49.1 |
| O=[N+]([O-])c1ccc(-c2cc(CNS(=O)(=O)c3ccc(Cl)cc3)on2)cc1 | – | – | 2 | – | – | inactive | Not Active | growth inhibition (GI) (Trypanosoma cruzi [1]): inactive; GI50 (Trypanosoma cruzi [2]): inactive |
| COc1ccc(-c2cc(CNS(=O)(=O)c3ccc(C)cc3)on2)cc1 | – | – | 2 | 65 | 95.9 | – | – | CC50 at 48 h [8]: > 500 µM; CC50 at 48 h [9]: > 500 µM; CC50 at 48 h [10]: ≥ 331 µM; CC50 [11]: > 500 µM; growth inhibition (GI) (Trypanosoma cruzi [1]): inactive; GI50 (Trypanosoma cruzi [2]): inactive; selectivity ratio [6]: > 3.4 |
| O=S(=O)(NCc1cc(-c2ccccc2)no1)c1ccc(F)cc1 | – | – | 13.2 | 40.2 | > 100 | – | – | growth inhibition (GI) (Trypanosoma cruzi [1]): inactive; GI50 (Trypanosoma cruzi [2]): inactive |
| O=[N+]([O-])c1ccc(S(=O)(=O)NCc2cc(-c3ccccc3)no2)cc1 | 34 | > 50 | 18.4 | 10.4 | > 100 | – | – | – |
| O=[N+]([O-])c1ccc(S(=O)(=O)NCc2cc(-c3ccc4c(c3)OCO4)no2)cc1 | 86.3 | 11.6 | 43.4 | 25.3 | > 100 | – | – | CC50 at 48 h [8]: 284 µM; CC50 at 48 h [9]: > 500 µM; CC50 at 48 h [10]: 387 µM; CC50 [11]: 339 µM; selectivity ratio [7]: 29.1 |
| C[C@@H]1[C@H](O)[C@@H](C)/C=C/C=C/C=C/C=C/C=C/C=C/C=C/[C@H](O[C@@H]2O[C@H](C)[C@@H](O)[C@H](N)[C@@H]2O)C[C@@H]2O[C@](O)(C[C@@H](O)C[C@@H](O)[C@H](O)CC[C@@H](O)C[C@@H](O)CC(=O)O[C@H]1C)C[C@H](O)[C@H]2C(=O)O [AMPHOTERICIN B] | – | – | – | – | – | – | – | inhibition of growth at 2 µM (Leishmania amazonensis [13]): 92.1% |
| COc1ccc(-c2cc(CNS(=O)(=O)c3ccc(Cl)cc3)on2)cc1 | – | – | 6.4 | 32 | > 100 | – | – | growth inhibition (GI) (Trypanosoma cruzi [1]): inactive; GI50 (Trypanosoma cruzi [2]): inactive |
| O=S(=O)(NCc1cc(-c2ccc3c(c2)OCO3)no1)c1ccc(F)cc1 | – | – | 12.8 | 70.1 | 173 | – | – | growth inhibition (GI) (Trypanosoma cruzi [1]): inactive; GI50 (Trypanosoma cruzi [2]): inactive; selectivity ratio [6]: > 2.9 |
| Nc1nc2c(ncn2COCCO)c(=O)[nH]1 [ACYCLOVIR] | – | – | – | – | 1.29 | – | – | selectivity ratio [6]: > 1500 |
